The values that follow come from patent publication US20210403415A1, “COMPOUNDS AND METHODS TO ATTENUATE TUMOR PROGRESSION AND METASTASIS” (THE TRUSTEES OF INDIANA UNIVERSITY, priority 2018, published 2021).

The target of one test is TEAD4.Yap1 interaction (Homo sapiens, UniProt Q15561). In words: Fluorescence polarization, GST-TEAD4 with FAM-Yap60-99 peptide. Further details: TEAD4 (217-434), TEAD4 (217-434) Cys367Ser mutant and Yap1 (Full-length) were expressed as GST-fusion proteins; made in house; host or cells: E. coli BL-21 (DE3), pGEX-6P-1. The test is classed as binding. Conditions: 0.5, 6, 24, 48 h incubation at 4° C., 0.1-100 μM.

The test system of another test is CTGF transcript levels. Description: qRT-PCR of CTGF transcript in GBM43 cells. The test is classed as cell-based, human. Conditions: FIG. 8C. In general terms: In qPCR the cycle at which signal appears reflects the starting amount.
Test [1] concerns patient-derived GBM43 glioblastoma spheroids. Description: GBM43 spheroid viability (Alamar blue). To be noted: for cytotoxicity at 10 µM: Homo sapiens, GBM43 cell, read-out: inhibition of GBM43 cell viability; for effect on GBM43 cancer cell viability / growth: three-dimensional spheroids. In kind it is cell-based, human. As for the experimental part: Early-passage GBM43 cells were cultured in ultralow adherence plates (Corning Inc.) at 1 to 2×10^3 cells/mL in DMEM supplemented with 1% […] (Invitrogen), 2% B27 (Invitrogen), 25 ng/mL epidermal growth factor (EGF, 25 ng/mL fibroblast growth factor (FGF) (R&D Systems, Inc.), […], 2 ng/mL platelet growth factor, and 100 ng/mL each of penicillin and streptomycin (Invitrogen Inc.). Individual cells were recovered from spheres by incubation with Accutase (Sigma-Aldrich) for 10-15 minutes. Cells (50-100/well) were then seeded in fresh sphere-forming media in 96-well plates. After 2-3 days, Neurospheres containing 6 to 8 cells were treated with compounds 1, 2, and 5.
HEK-293 were cultured in DMEM with glutamine (Cellgro, Manassas, Va.) supplemented with 10% FBS and 1% penicillin/streptomycin in a 5% CO2 atmosphere at 37° C. Tumors were expanded by passage in the flank of NOD/SCIDγnull mice. To generate GBM43 cell lines, tumors were harvested, disaggregated, and maintained in 2.5% FBS for 14 days on Matrigel-coated plates (BD Biosciences) to remove murine fibroblasts. In-vitro GBM43 cell lines were propagated in DMEM with 10% FBS for no more than 7 passages. Cell line identity was confirmed by DNA fingerprint analysis (IDEXX BioResearch) for species and baseline short-tandem repeat analysis testing. GBM43 spheroids were generated by plating early-passage cells at 2.5×10^4 cells per well in 96-well ultralow attachment plates (Corning Inc.) in DMEM/F12 (1:1; GIBCO) supplemented with 2% B27 supplement (GIBCO), 20 ng/mL epidermal growth factor (EGF), and 20 ng/mL fibroblast growth factor (FGF) (Peprotech) for 2 days. The spheroids were then treated with compounds 1, 2, and 5 and growth analyzed by Alamar blue staining.

Test [2] addresses T1, TEAD4 (Homo sapiens, UniProt Q15561). In words: Whole protein ESI mass spectrometry, adduct formation. The test is classed as binding. Further details: TEAD4 (217-434), TEAD4 (217-434) Cys367Ser mutant and Yap1 (Full-length) were expressed as GST-fusion proteins; GST (N, cleaved yes); made in house; host or cells: E. coli BL-21 (DE3), pGEX-6P-1. To be noted: for covalent adduct formation with TEAD4: 10 μM TEAD4, 200 μM compound, 24 h at 4° C. As for the experimental part: The samples were centrifuged at 20,000×g for […] to remove precipitants before being injected into an empty column on an Agilent 1200 liquid chromatography system (Agilent, Santa Clara, Calif.), using 80% Buffer A (H2O, 5 mM NH4OAc) and 20% Buffer B (ACN, 5 mM NH4OAc), and the masses were detected on an Agilent 6520 Accurate Mass Q-TOF.
It was determined whether a covalent bond formed between inventive compounds and TEAD4. […] The covalent adduct formation by compound 2 was relatively fast (FIG. 3G), reaching nearly 100% adduct formation after 30 min incubation with TEAD4. Because the rate of inhibition developed over a longer timescale (FIG. 3C), compound 2 is proposed to induce a slow conformational change in TEAD4 that prevents its interaction with Yap1. To rule out the possibility that compound 2 induces slow aggregation of TEAD4, and not the proposed slow conformational change, GST-TEAD4 was incubated with DMSO compound 2 for 24 h at 4° C., followed by injection into an SEC column (FIG. 3H). […] A slight increase in dimer formation for the TEAD4 sample incubated with compound 2 occurred compared to the sample incubated with DMSO. […] Furthermore, it is highly unlikely that Cys-367 oxidation was responsible for the lack of 100% inhibition at longer times since it has been shown that covalent bond formation is rapid and complete within less than an hour.
Target sequence in this assay (Q15561 217-434): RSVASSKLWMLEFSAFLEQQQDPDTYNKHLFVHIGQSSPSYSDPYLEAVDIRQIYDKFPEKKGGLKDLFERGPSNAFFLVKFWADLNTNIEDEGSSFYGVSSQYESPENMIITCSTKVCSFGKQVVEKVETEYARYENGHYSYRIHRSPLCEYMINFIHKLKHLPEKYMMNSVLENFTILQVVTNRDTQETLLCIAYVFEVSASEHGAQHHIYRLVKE

Test [3] deals with T1, TEAD4. Description: Covalent streptavidin pull down of myc-TEAD4 from HEK293 cell lysates. Further details: expressed in transfected cells; host or cells: HEK293. The test is classed as cell-based. To be noted: higher concentrations, with compound 9. As for the experimental part:
HEK293 cells transfected with the myc-TEAD4 construct were grown for 48 h and then treated with DMSO or with 25 μM of compound 2 for an additional 48 h. Cells were then harvested in lysis buffer (50 mM Tris-HCl, pH 7.3, 150 mM NaCl, 0.5 mM EDTA, 1% Triton X-100, PhosSTOP phosphatase inhibitor cocktail, and EDTA-free protease inhibitors cocktail). Cell lysates containing 2 mg of protein were incubated with the indicated compounds or DMSO for 24 h. Extracts were then incubated with Dynabeads M-280 Streptavidin (Sigma-Aldrich) for 2 h at 4° C. Dynabeads were then washed and bound proteins were denatured and eluted according to the manufacturer's instructions. Relative levels of myc-TEAD4 from each complex were measured by immunoblot analysis with the anti-c-Myc antibody (1:5,000, Sigma-Aldrich).
Target sequence in this assay (Q15561 whole entry, the tested form may be a part): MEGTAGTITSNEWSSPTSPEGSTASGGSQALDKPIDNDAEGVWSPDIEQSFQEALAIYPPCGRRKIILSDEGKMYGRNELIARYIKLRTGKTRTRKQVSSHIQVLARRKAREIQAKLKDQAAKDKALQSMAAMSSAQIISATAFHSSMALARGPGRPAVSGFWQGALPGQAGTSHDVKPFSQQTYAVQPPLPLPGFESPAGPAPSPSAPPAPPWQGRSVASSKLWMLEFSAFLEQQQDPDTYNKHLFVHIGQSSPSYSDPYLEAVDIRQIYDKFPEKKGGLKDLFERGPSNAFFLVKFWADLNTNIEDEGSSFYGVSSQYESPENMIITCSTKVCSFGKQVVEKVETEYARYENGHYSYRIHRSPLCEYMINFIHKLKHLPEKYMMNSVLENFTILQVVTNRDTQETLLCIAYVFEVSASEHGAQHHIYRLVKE

Read-outs that look alike come from different tables or passages of the source.

TEAD4.Yap1 interaction, sequence (Q15561 217-434): as the sequence (Q15561 217-434) above

Consider `O=C(CCl)c1ncccc1Nc1cccc(C(F)(F)F)c1` [Compound 5, 2-chloro-1-(3-((3-(trifluoromethyl)phenyl)amino)pyridin-2-yl)ethanone], for which, at TEAD4.Yap1 interaction (read-out: rate of inactivation kinact (converted)), the kinact was 1.36e-05 s⁻¹. Also, in the test on CTGF transcript levels, the “CTGF transcript levels versus vehicle” value is “suppressed CTGF transcript levels”. In addition, in test [1], the cytotoxicity at 10 µM was found to be 30% and the “effect on GBM43 cancer cell viability / growth” value was “inhibited GBM43 cancer cell viability”. Moreover, the “covalent adduct formation with TEAD4” value at TEAD4 [2] was “formed more than one covalent complex”. Further, the “competition with compound 9 for binding to TEAD4” value at TEAD4 [3] is on record as “compete with compound 9 for binding to TEAD4”.
`O=C(CCl)c1ccccc1Nc1cccc(C(F)(F)F)c1` [Compound 2, 2-chloro-1-(2-((3-(trifluoromethyl)phenyl)amino)phenyl)ethanone]: at TEAD4.Yap1 interaction (read-out: maximum rate of inactivation (kinact) (converted)), the kinact was 1.06e-05 s⁻¹. In the test with CTGF transcript levels, the “CTGF transcript levels versus vehicle” value is reported as “suppressed CTGF transcript levels”. Moreover, in test [1], the cytotoxicity at 10 µM amounted to 30% and the “effect on GBM43 cancer cell viability / growth” value is “inhibited GBM43 cancer cell viability”. Moreover, the “covalent adduct formation with TEAD4” value at TEAD4 [2] was “a peak at 26229 was observed, corresponding to the TEAD4.compound 2 adduct”. The “adduct formation with TEAD4” value on TEAD4 [2] (after 30 min incubation) was roughly 100%. Besides, the “competition with compound 9 for binding to TEAD4” value at TEAD4 [3] is recorded as “compete with compound 9 for binding to TEAD4”.

Broadly, the kinact is the maximal first-order rate at which the target is inactivated.
